Source: patent US6783949B1, “Processes for determining whether a test substance contains lipases or lipase inhibitors” (Aventis Pharma Deutschland GmbH, priority 1999, dated 2004)

Target: T1, HSL (Rattus norvegicus, UniProt P15304)
T1 construct: The partially purified HSL can be stored at −70° C. for 4 to 6 weeks; from tissue; host or cells: rat epididymal fat cells (male Wistar rats)
T1 sequence (P15304 1-768 isoform P15304-2): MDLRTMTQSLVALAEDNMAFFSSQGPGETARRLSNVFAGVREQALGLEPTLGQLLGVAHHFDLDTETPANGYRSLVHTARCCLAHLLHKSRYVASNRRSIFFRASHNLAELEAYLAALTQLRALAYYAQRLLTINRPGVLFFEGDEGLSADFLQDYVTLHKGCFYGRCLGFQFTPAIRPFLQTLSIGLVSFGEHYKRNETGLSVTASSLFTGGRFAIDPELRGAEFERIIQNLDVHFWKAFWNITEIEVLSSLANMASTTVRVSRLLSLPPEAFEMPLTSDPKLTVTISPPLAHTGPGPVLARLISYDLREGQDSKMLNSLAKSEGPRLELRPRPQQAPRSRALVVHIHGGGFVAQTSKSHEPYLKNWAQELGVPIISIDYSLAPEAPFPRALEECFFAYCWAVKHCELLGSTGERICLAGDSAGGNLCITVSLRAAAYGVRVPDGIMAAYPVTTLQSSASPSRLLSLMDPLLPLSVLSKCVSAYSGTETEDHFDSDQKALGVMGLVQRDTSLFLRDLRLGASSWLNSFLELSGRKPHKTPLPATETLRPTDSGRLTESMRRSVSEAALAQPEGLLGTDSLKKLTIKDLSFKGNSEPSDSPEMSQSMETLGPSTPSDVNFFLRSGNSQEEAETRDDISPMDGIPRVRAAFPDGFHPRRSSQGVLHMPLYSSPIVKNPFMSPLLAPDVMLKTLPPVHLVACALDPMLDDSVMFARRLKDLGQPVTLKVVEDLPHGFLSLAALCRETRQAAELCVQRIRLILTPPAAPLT
Test: Indirect NAG assay (extinction increase at 481 nm)
Format: biochemical
Settings: for Absorption change, Decrease, 550 nm / Absorption change, Increase, 481 nm / Increase in the absorption at 481 nm: NAG 0.05 mg/ml
Experimental: A typical reaction is carried out at 30° C. for 60 min, for example in 1.5 ml Eppendorf vessels or 96-hole plates. […] 180 μl of the substrate solution (20 μg/ml of phosphatidylcholine, 10 μg/ml of phosphatidylinositol, 50 μg/ml of NAG in assay buffer) are added. After a preincubation for 15 min at 30° C., 20 μl of HSL in assay buffer are pipetted in and the extinction is immediately measured (see above) at 481 nm in a cuvette photometer (0.5 ml cuvette) or microtiter plate reader. After a certain incubation time, which is variable and depends on the chosen enzyme concentration and can be between 2 and 240 minutes, in this case incubation at 30° C. for 60 min, the extinction is measured again. The increase in the extinction in the yellow region, in this case at 481 nm, is a measure of the enzyme activity.
Isolated rat fat cells are obtained from epididymal fatty tissue from untreated male rats (Wistar, 220-250 g) by collagenase treatment according to published processes. The fat cells from 10 rats are washed three times by flotation with 50 ml each of homogenization buffer ([…], pH 7.4, 0.25 M sucrose, 1 mM ethylenediamine-N,N,N′,N′-tetraacetic acid (EDTA), 1 mM dithiothreitol (DTT), 10 μg/ml of leupeptin, 10 μg/ml of antipain, 20 μg/ml of pepstatin) and finally taken up in 10 ml of homogenization buffer. The fat cells are homogenized in a Teflon-in-glass homogenizer (Braun-Melsungen) by 10 strokes at 1500 rpm and 15° C. The homogenizate is centrifuged (Sorvall SM24 tubes, 5000 rpm, 10 min, 4° C.). The […] between the overlying fatty layer and the pellet is removed and the centrifugation is repeated. The […] resulting from this is centrifuged again (Sorvall SM24 tubes, 20,000 rpm, 45 min, 4° C.). […] After incubation for 60 min at 4° C. (shake at intervals of 15 min), the batch is centrifuged (Sorvall SM24 tubes, 3000 rpm, 10 min, 4° C.). The supernatant is brought to pH 5.2 by addition of glacial acetic acid and incubated at 4° C. for 30 min. […] The suspension is dialyzed overnight at 4° C. against 25 mM TRIS/HCl, pH 7.4, 50% glycerol, 1 mM DTT, and 10 μg/ml of leupeptin, pepstatin, and antipain and then applied to a hydroxylapatite column (0.1 g per 1 ml of suspension, equilibrated with 10 mM potassium phosphate, pH 7.0, 30% glycerol, 1 mM DTT). The column is washed with four volumes of equilibration buffer at a flow rate of 20 to 30 ml/h. The HSL is eluted with a volume of equilibration buffer which contains 0.5 M potassium phosphate, then dialyzed (see above) and concentrated 5 to 10 times by ultrafiltration (Amicon Diaflo PM 10 filter) at 4° C. The partially purified HSL can be stored at −70° C. for 4 to 6 weeks.
6 mg of phosphatidylcholine and 6 mg of phosphatidylinositol are dissolved in 1 ml of chloroform each. 10 mg of NAG are dissolved in 1 ml of chloroform. […] The chloroform (225 μl total volume) is completely removed by overblowing with a stream of N2. The dried substrate can be stored at 4° C. for up to three days. For the preparation of the phospholipid vesicles/micelles having intercalated NAG (on the test day), the dried substrate is taken up in 20 ml of assay buffer (25 mM TRIS/HCl, pH 7.4; 150 mM NaCl) and two ultrasonic treatments with an ultrasonic probe (Branson Sonifier type 11, standard microtip): 1st treatment setting 2, 2×1 min, in between in each case 1 min on ice; 2nd treatment setting 4, 2×1 min, in between in each case 1 min on ice. […] Before use as a substrate (within the next 2 h), the solution is additionally incubated on ice for 15 min.
The assay is carried out at 30° C. for 60 min in 1.5 ml Eppendorf vessels or 96-hole plates.

O=C(CCCCCCCCCCCNc1ccc([N+](=O)[O-])c2nonc12)OCC(O)CO (stereo not drawn) [Compound (3)]
Signal strength (20 μg of protein, 0.05 mg/ml of NAG): 0.6 to 0.7 OD
Absorption change, Decrease, 550 nm (HSL 1 μg, 60 min): 866 ± 94 arb. units
Absorption change, Increase, 481 nm (HSL 1 μg, 60 min): 156 ± 21 arb. units
Absorption change, Decrease, 550 nm (HSL 2 μg, 60 min): 841 ± 78 arb. units
Absorption change, Increase, 481 nm (HSL 2 μg, 60 min): 347 ± 40 arb. units
Increase in the absorption at 481 nm (HSL 5 μg, 1 min): 12 ± 2 arb. units
Increase in the absorption at 481 nm (HSL 5 μg, 2 min): 23 ± 4 arb. units
Increase in the absorption at 481 nm (HSL 5 μg, 5 min): 45 ± 9 arb. units
Increase in the absorption at 481 nm (HSL 5 μg, 10 min): 105 ± 18 arb. units
Increase in the absorption at 481 nm (HSL 5 μg, 15 min): 155 ± 20 arb. units
Increase in the absorption at 481 nm (HSL 5 μg, 20 min): 219 ± 31 arb. units
Increase in the absorption at 481 nm (HSL 5 μg, 30 min): 295 ± 47 arb. units
Increase in the absorption at 481 nm (HSL 5 μg, 45 min): 453 ± 52 arb. units
Absorption change, Decrease, 550 nm (HSL 5 μg, 60 min): 779 ± 82 arb. units
Absorption change, Increase, 481 nm (HSL 5 μg, 60 min): 791 ± 88 arb. units
Increase in the absorption at 481 nm (HSL 5 μg, 60 min): 677 ± 70 arb. units
Increase in the absorption at 481 nm (HSL 5 μg, 75 min): 831 ± 92 arb. units
Increase in the absorption at 481 nm (HSL 5 μg, 90 min): 995 ± 82 arb. units
Increase in the absorption at 481 nm (HSL 5 μg, 120 min): 1455 ± 102 arb. units
Increase in the absorption at 481 nm (HSL 5 μg, 180 min): 1937 ± 121 arb. units
Absorption change, Decrease, 550 nm (HSL 7.5 μg, 60 min): 759 ± 69 arb. units
Absorption change, Increase, 481 nm (HSL 7.5 μg, 60 min): 1066 ± 120 arb. units
Increase in the absorption at 481 nm (HSL 10 μg, 1 min): 19 ± 4 arb. units
Increase in the absorption at 481 nm (HSL 10 μg, 2 min): 51 ± 9 arb. units
Increase in the absorption at 481 nm (HSL 10 μg, 5 min): 102 ± 19 arb. units
Increase in the absorption at 481 nm (HSL 10 μg, 10 min): 185 ± 26 arb. units
Increase in the absorption at 481 nm (HSL 10 μg, 15 min): 288 ± 39 arb. units
Increase in the absorption at 481 nm (HSL 10 μg, 20 min): 395 ± 36 arb. units
Increase in the absorption at 481 nm (HSL 10 μg, 30 min): 517 ± 67 arb. units
Increase in the absorption at 481 nm (HSL 10 μg, 45 min): 830 ± 57 arb. units
Absorption change, Decrease, 550 nm (HSL 10 μg, 60 min): 650 ± 61 arb. units
Absorption change, Increase, 481 nm (HSL 10 μg, 60 min): 1255 ± 141 arb. units
Increase in the absorption at 481 nm (HSL 10 μg, 60 min): 1179 ± 110 arb. units
Increase in the absorption at 481 nm (HSL 10 μg, 75 min): 1487 ± 104 arb. units
Increase in the absorption at 481 nm (HSL 10 μg, 90 min): 1844 ± 130 arb. units
Increase in the absorption at 481 nm (HSL 10 μg, 120 min): 2745 ± 195 arb. units
Increase in the absorption at 481 nm (HSL 10 μg, 180 min): 3521 ± 254 arb. units
Absorption change, Decrease, 550 nm (HSL 15 μg, 60 min): 540 ± 55 arb. units
Absorption change, Increase, 481 nm (HSL 15 μg, 60 min): 2351 ± 205 arb. units
Increase in the absorption at 481 nm (HSL 20 μg, 1 min): 5 ± 7 arb. units
Increase in the absorption at 481 nm (HSL 20 μg, 2 min): 78 ± 12 arb. units
Increase in the absorption at 481 nm (HSL 20 μg, 5 min): 193 ± 36 arb. units
Increase in the absorption at 481 nm (HSL 20 μg, 10 min): 423 ± 62 arb. units
Increase in the absorption at 481 nm (HSL 20 μg, 15 min): 617 ± 70 arb. units
Increase in the absorption at 481 nm (HSL 20 μg, 20 min): 865 ± 93 arb. units
Increase in the absorption at 481 nm (HSL 20 μg, 30 min): 1143 ± 216 arb. units
Increase in the absorption at 481 nm (HSL 20 μg, 45 min): 1877 ± 206 arb. units
Absorption change, Decrease, 550 nm (HSL 20 μg, 60 min): 287 ± 51 arb. units
Absorption change, Increase, 481 nm (HSL 20 μg, 60 min): 2867 ± 199 arb. units
Increase in the absorption at 481 nm (HSL 20 μg, 60 min): 2510 ± 295 arb. units
Increase in the absorption at 481 nm (HSL 20 μg, 75 min): 3067 ± 310 arb. units
Increase in the absorption at 481 nm (HSL 20 μg, 90 min): 3527 ± 188 arb. units
Increase in the absorption at 481 nm (HSL 20 μg, 120 min): 4941 ± 410 arb. units
Increase in the absorption at 481 nm (HSL 20 μg, 180 min): 5712 ± 399 arb. units
Absorption change, Decrease, 550 nm (HSL 25 μg, 60 min): 198 ± 44 arb. units
Absorption change, Increase, 481 nm (HSL 25 μg, 60 min): 3428 ± 270 arb. units
Absorption change, Decrease, 550 nm (HSL 30 μg, 60 min): 115 ± 35 arb. units
Absorption change, Increase, 481 nm (HSL 30 μg, 60 min): 3973 ± 244 arb. units
Increase in the absorption at 481 nm (HSL 40 μg, 1 min): 91 ± 14 arb. units
Increase in the absorption at 481 nm (HSL 40 μg, 2 min): 89 ± 32 arb. units
Increase in the absorption at 481 nm (HSL 40 μg, 5 min): 395 ± 62 arb. units
Increase in the absorption at 481 nm (HSL 40 μg, 10 min): 784 ± 88 arb. units
Increase in the absorption at 481 nm (HSL 40 μg, 15 min): 1060 ± 144 arb. units
